Molecules are shown by their SMILES. ≈ marks a conversion by molar mass, not a printed value. Where only a bound is given, the exact number is not on record here.

For this data set the following is noted: buffer; pH 7.4; 200.0 µM.
On to `O=C(NCCCn1ccnc1)c1ccc(-c2cccc(Cl)c2Cl)o1`, for which the solubility (kinetic) – broadly, solubility judged after dilution from a stock solution rather than from solid – is 48.1 µg/mL (≈ 132 µM).

Take `COc1ccccc1OCCNC(=O)c1ccco1`: the solubility (kinetic) came out at 33.4 µg/mL (≈ 128 µM). Next, `CNc1cc(C)c(C#N)c2nc3ccccc3n12`: 2.6 µg/mL (≈ 11 µM); `CCOc1cc(C(=O)OC(C(=O)NC(=O)NC)c2ccccc2)ccc1OCC(=O)N1CCOCC1` (configuration not stated): 11.4 µg/mL (≈ 22.8 µM); `O=[N+]([O-])c1ccccc1S(=O)(=O)NC1CCCCCCC1`: 20.1 µg/mL (≈ 64.3 µM). In the case of `Cn1ccnc1SCC(=O)c1ccc(OC(F)F)cc1` it was over 44.7 µg/mL. Next, `Cc1c(Cl)cccc1NC(=O)CNC(=O)c1ccc2c(c1)OCCO2`: 18 µg/mL (≈ 49.9 µM); `O=C(Nc1cccc(F)c1)Nc1ccc(Cl)cn1`: under 0.2 µg/mL; `COc1ccc(-c2nc(NC(C)=O)sc2-c2ccccc2)cc1`: 4 µg/mL (≈ 12.3 µM). On to `Cc1ccc2c(c1)N(CC(=O)NC1CCCC1)C(=O)CO2`, for which the kinetic solubility is over 43.3 µg/mL. On to `O=C(O)[C@H](Cc1ccccc1)NC(=O)N1CCN(c2ccccc2)CC1`, for which the kinetic solubility is 51.8 µg/mL (≈ 147 µM). In the case of `O=C(CN1CCCC1)Nc1ccccc1Sc1ccc(Cl)cc1` it was 8.6 µg/mL (≈ 24.8 µM). The compound `Cc1cc(C(=O)OCC(=O)N(C)c2ccccc2)c(C)o1` showed a solubility (kinetic) of over 43.1 µg/mL. Next, `CC(C)Oc1ccc(C(=O)OCC(=O)c2ccc[nH]2)cc1`: 15.1 µg/mL (≈ 52.6 µM).

With `O=C(NCCNC1CCC(c2ccccc2)CC1)c1ccc(F)cc1` (configuration not stated), the solubility (kinetic) was 35.4 µg/mL (≈ 104 µM). In the case of `Cc1ccc(NC(=O)C2C3CCCCC32)cc1[N+](=O)[O-]` (configuration not stated) it was 0.5 µg/mL (≈ 1.82 µM); in that of `Cc1ccc(C#N)c(SCCN2CCCCC2)n1`, 32.4 µg/mL (≈ 124 µM). In the case of `Cc1ccc2[nH]c3c(c2c1)CCN(C)C3` it was over 30 µg/mL; in that of `O=C(O)c1ccc(-c2nc3scc(-c4ccccc4)c3c(=O)[nH]2)cc1`, over 52.3 µg/mL. In the case of `Cc1onc(-c2ccccc2Cl)c1C(=O)Nc1cccc(S(=O)(=O)N2CCOCC2)c1` it was 2 µg/mL (≈ 4.33 µM); in that of `O=C(Nc1ccc(CN2CCOCC2)cc1)c1ccc(Cl)cc1Cl`, 19.9 µg/mL (≈ 54.5 µM). Compound `Cc1ccsc1C(=O)Nc1nc2ccccc2[nH]1` gave a solubility (kinetic) of 2 µg/mL (≈ 7.77 µM). `CC1CN(C(=O)Nc2ccc(F)cc2F)CC(C)O1` (configuration not stated) had a kinetic solubility of over 40.5 µg/mL.

For `COc1cc(OC)c(S(=O)(=O)NC(C)C)cc1C(=O)O`, the kinetic solubility was over 45.5 µg/mL. In the case of `O=C(NC(=S)Nc1cccc([N+](=O)[O-])c1)C1CCCC1` it was 2.6 µg/mL (≈ 8.86 µM); in that of `Cc1ccc(NC(=O)CCC(=O)c2cccs2)c(Br)c1`, 8.6 µg/mL (≈ 24.4 µM). The compound `CCOC(=O)/C(C#N)=C1\C(=O)N(Cc2ccccc2)c2ccccc21` came in with a kinetic solubility of 1.3 µg/mL (≈ 3.91 µM). Next, `COc1ccc(CNC2CCCc3ccccc32)c(OC)c1` (configuration not stated): 31.4 µg/mL (≈ 106 µM); `Cl.NS(=O)(=O)c1ccc(CCNCc2cccnc2)cc1`: 40.5 µg/mL.

In turn, `Cc1cccc(C)c1NC(=O)CNC(=O)c1c(C)nn(C)c1Cl` returned a solubility (kinetic) of over 50.2 µg/mL.

In turn, `COc1ccc(CN(C(=O)c2cccs2)c2ccccc2)cc1` registered a solubility (kinetic) of 8.8 µg/mL (≈ 27.2 µM). In the case of `FC(F)(F)c1cccc(-c2nc(-c3ccncc3)no2)c1` it was 0.4 µg/mL (≈ 1.37 µM). Next, `CCN(CC(=O)NC1CC1)S(=O)(=O)c1ccccc1`: over 42.4 µg/mL. Turning to `O=C(NC(=S)NCc1ccco1)c1cccc(Cl)c1`, the solubility (kinetic) worked out at 2.7 µg/mL (≈ 9.16 µM). Next, `O=C(Nc1cc2c(cc1Br)OCCO2)c1ccc(=O)[nH]c1`: over 52.7 µg/mL; `Cc1c(Cl)cccc1NC(=O)Cn1c(-c2ccc(F)cc2)noc1=O`: 4 µg/mL (≈ 11.1 µM); `O=C1OCc2nc3cc4c(cc3c(-c3ccc(F)cc3)c21)OCO4`: 1.2 µg/mL (≈ 3.71 µM). In the case of `COc1ccc(CCNc2ncccc2C#N)cc1OC` it was over 42.5 µg/mL; in that of `COc1cc(OC)cc(C(=O)NC(C(=O)N2CCC2)C(C)C)c1` (configuration not stated), over 48.1 µg/mL. Next, `COc1ccccc1Cn1c(C(C)C)nc2ccccc21`: over 42.1 µg/mL.

The compound `O=C1CNC(c2ccccc2Cl)c2cc(Br)ccc2N1` (configuration not stated) yielded a kinetic solubility of 0.8 µg/mL (≈ 2.28 µM). In the case of `Cc1cc(C)c(CN2CCC(CO)(CCOc3ccccc3)CC2)cc1C` it was 38.6 µg/mL (≈ 105 µM); in that of `Cc1ccc(C(=O)NCC(c2ccc(F)cc2)N2CCOCC2)s1` (configuration not stated), over 52.3 µg/mL. Next, `O=C(Nc1ccccc1C(=O)NC1CC1)c1ccc([N+](=O)[O-])o1`: over 47.3 µg/mL; `FC(F)(F)c1cccc(NC(=S)N2CCCC2)c1`: over 41.1 µg/mL; `O=C(Nc1ccc(C2CC2(Cl)Cl)cc1)c1cccc([N+](=O)[O-])c1` (configuration not stated): under 0.4 µg/mL. In the case of `CCN(CC(=O)Nc1cc(Cl)cc(Cl)c1)CC(=O)NC1CCS(=O)(=O)C1` (configuration not stated) it was 52.3 µg/mL (≈ 124 µM); in that of `O=C(c1ccccc1)c1ccccc1N1C(=O)C=CC1=O`, over 41.6 µg/mL. As to `COc1cccc2cc(C(=O)OCC(=O)N3CC(C)OC(C)C3)c(=O)oc12` (configuration not stated), the kinetic solubility was over 56.3 µg/mL.

For `Cc1cnc(C(=O)OCC(=O)Nc2cccc(C)c2C)cn1`, the kinetic solubility was over 44.9 µg/mL.

Compound `Cc1cc(C(=O)NCc2csc(-c3ccccc3)n2)no1` showed a solubility (kinetic) of over 44.9 µg/mL. In the case of `O=C(Nc1ccncc1)c1cc2ccccc2cc1O` it was 5.6 µg/mL (≈ 21.2 µM); in that of `COc1ccc(CNC(=O)c2csc3c2CCCC3)cc1`, 23.2 µg/mL (≈ 77 µM). In the case of `CN(C)CCN(C(=O)c1ccc2ccccc2c1)c1nc2ccc(F)cc2s1.Cl` it was 30 µg/mL; in that of `Cc1cc(Br)ccc1S(=O)(=O)n1ccnc1C`, over 47.3 µg/mL. `COC(=O)/C(C#N)=C\c1c(OC)[nH]c2ccccc12` had a solubility (kinetic) of 1.1 µg/mL (≈ 4.29 µM). Next, `CSc1nc(-c2ccccc2)nc(NC(=O)C(C)C)c1C(C)=O`: 0.8 µg/mL (≈ 2.43 µM). Turning to `C=CCNC(=S)N(Cc1ccccc1)Cc1ccccc1`, the kinetic solubility stood at 7.2 µg/mL (≈ 24.3 µM). Next, `Cc1ccc(Cn2ccc(O)c(Cc3ccccc3)c2=O)cc1`: under 0.7 µg/mL; `Cl.Clc1ccc2[nH]c3c(c2c1)CCNC3`: 32.4 µg/mL. Next, `CCc1c(C)sc(NC(=O)c2ccco2)c1C#N`: 17 µg/mL (≈ 65.3 µM). Regarding `CCOc1cc(C#N)ccc1OCC(=O)N1CCc2ccccc2C1`, the kinetic solubility was found to be 45.5 µg/mL (≈ 135 µM). In the case of `CC(C)(C)c1ccc(C(=O)NC(=S)N2CCCCCC2)cc1` it was 10.1 µg/mL (≈ 31.7 µM); in that of `C=CCOc1nc2c(c(=O)n(C)c(=O)n2C)n1Cc1ccccc1`, 8.2 µg/mL (≈ 25.1 µM). In the case of `CC[n+]1ccc(C(=O)NCc2ccccc2)cc1.[Cl-]` it was over 41.5 µg/mL; in that of `Cn1c(=O)c2c(O)c([N+](=O)[O-])c(=O)n(C)c2n(C)c1=O`, over 42.3 µg/mL; in that of `Cl.c1cncc(CNc2ncnc3sc4c(c23)CCC4)c1`, 7.5 µg/mL. The compound `COc1ccccc1-c1nc2ccc(Cl)cc2c(=O)n1O` registered a solubility (kinetic) of over 45.4 µg/mL.

The compound `O=C(COC(=O)Cn1cnc2ccccc21)Nc1ccccc1C(F)(F)F` registered a kinetic solubility of over 56.6 µg/mL. `O=C(O)c1cccc(Nc2ccc3nonc3c2[N+](=O)[O-])c1`: the solubility (kinetic) came out at 35.9 µg/mL (≈ 120 µM).

With `O=C(c1c(F)cccc1F)N1CCC(O)(c2ccc(F)cc2)CC1`, the kinetic solubility amounted to 49 µg/mL (≈ 146 µM). Next, `Cc1cccc(NC(=O)C(C)N2CC=C(c3ccccc3)CC2)c1` (configuration not stated): 2.9 µg/mL (≈ 9.05 µM); `COc1ccc2nc(S(=O)Cc3ncc(C)c(OC)c3C)[nH]c2c1` (configuration not stated): 35.4 µg/mL (≈ 102 µM). `COc1cccc(CN(C)C(=S)Nc2ccc(C)c(C)c2)c1` came in with a kinetic solubility of 25.1 µg/mL (≈ 79.8 µM). Next, `NS(=O)(=O)c1cc2c(cc1C(F)(F)F)NCNS2(=O)=O`: over 49.7 µg/mL; `CCCNC(=O)NS(=O)(=O)c1ccc(Cl)cc1`: over 41.5 µg/mL; `Cc1cccc2c3nc4ccccc4nc3n(C)c12`: under 0.2 µg/mL.

The compound `COC(OC)c1ccc(C#N)c(SCc2ccc(C)cc2)n1` had a solubility (kinetic) of 0.4 µg/mL (≈ 1.27 µM). Next, `Cc1c(C(=O)OCC(=O)N(C)c2ccccc2)cccc1[N+](=O)[O-]`: 38.1 µg/mL (≈ 116 µM). In the case of `O=C(Nc1ccon1)Nc1ccc(F)cc1F` it was over 35.9 µg/mL; in that of `COc1ccc(CCC(=O)Nc2ccc(C(=O)c3ccncc3)cc2)cc1`, 3.8 µg/mL (≈ 10.5 µM). Next, `CCOc1nc2ccccc2nc1NS(=O)(=O)c1ccc(Cl)cc1`: over 54.6 µg/mL.

Compound `O=C(COC(=O)c1cc(Cl)ccc1O)Nc1ccccc1C(=O)NC1CC1` displayed a kinetic solubility of 2 µg/mL (≈ 5.14 µM).

For the compound `O=C1c2ccsc2SCCN1Cc1c(F)cccc1Cl`, the solubility (kinetic) turned out to be 44.4 µg/mL (≈ 135 µM). In the case of `Cc1ccc2nc(NS(=O)(=O)c3cn(C)nc3C)sc2c1` it was over 48.4 µg/mL; in that of `COc1ccc(/C=N/NC(=O)c2ccc3nc[nH]c3c2)cc1`, over 44.1 µg/mL; in that of `COc1ccc(OC)c(Nc2nc(C)nc3c2oc2ccccc23)c1`, under 0.2 µg/mL.

`COC(=O)c1c(NC(C)=O)sc(C(=O)Nc2ccccc2)c1C`: the solubility (kinetic) came to 0.9 µg/mL (≈ 2.71 µM). Compound `COc1ccccc1NS(=O)(=O)c1ccc(C(=O)N2CCN(c3ccccn3)CC2)cc1` showed a kinetic solubility of 53.9 µg/mL (≈ 119 µM). In turn, `CCCCC12CN3CC(C)(CN(C1)C3c1ccc([N+](=O)[O-])o1)C2=O` (configuration not stated) gave a solubility (kinetic) of over 50 µg/mL. In the case of `Cc1ccc(NS(=O)(=O)c2cccc3nsnc23)cc1[N+](=O)[O-]` it was 50.2 µg/mL (≈ 143 µM); in that of `CCCN(CCC)CC(O)Cn1c2ccccc2c2ccccc21` (configuration not stated), 12.5 µg/mL (≈ 38.5 µM); in that of `Fc1ccc2[nH]c3c(NCc4ccccc4)ncnc3c2c1`, 3.4 µg/mL (≈ 11.6 µM). Next, `C=CCc1ccccc1OCC(O)CN1C(=O)c2ccccc2C1=O` (configuration not stated): 46 µg/mL (≈ 136 µM); `CCC1CCC(N2CCN(c3cccc(OC)c3)CC2)CC1` (configuration not stated): 32.6 µg/mL (≈ 108 µM); `Cc1ccccc1OCC(=O)Nc1cnn(CCCC(=O)O)c1`: over 47.6 µg/mL.

Consider `O=C(NCc1ccco1)Nc1ccc([N+](=O)[O-])cc1`, for which the kinetic solubility turned out to be 16.5 µg/mL (≈ 63.2 µM). Next, `Cc1ccc2cc(C)c(N3CCN(c4ccc(F)cc4)CC3)nc2c1`: under 0.2 µg/mL; `Cc1[nH]c(=O)[nH]c(=O)c1S(=O)(=O)Nc1ccc(F)c(Cl)c1`: over 50.1 µg/mL. In the case of `COc1cccc2cc(/C(=N/O)c3ccc(Br)cc3)oc12` it was under 0.7 µg/mL; in that of `COc1ccc(CC(=O)O/N=C(\N)c2ccccc2)cc1OC`, 37.5 µg/mL (≈ 119 µM); in that of `CC(OC(=O)c1cccc([N+](=O)[O-])c1)C(=O)NCc1ccc2c(c1)OCO2` (configuration not stated), 22.4 µg/mL (≈ 60.2 µM).

The values above are taken from PubChem BioAssay AID1996.
